Legend:
Type in all cases: biochemical
[1] = target: mu opioid receptor (MOR) (Homo sapiens, UniProt P35372); test: SPA-based GTP-γ-S binding assay, antagonist mode, mu opioid receptor; conditions: antagonist assay against agonist DAMGO 1 micromolar; membranes; Kb by Cheng-Prusoff equation
Description: (§1) A scintillation proximity assay (SPA) based GTP-γ-S^35 assay format was developed based on previous opioid (Emmerson et al., J. Pharm Exp Ther 278, 1121, 1996; Horng et al., Society for Neuroscience Abstracts, 434.6, 2000) and muscarinic (DeLapp et al., JPET 289, 946, 1999) assay formats. Membranes were resuspended in 20 mM HEPES, 100 mM NaCl, 5 mM MgCl2, 1 mM DTT, and 1 mM EDTA. […] of GTP-γ-[35S], compound, membrane suspension (20 microgram/well), and wheat germ agglutinin coated SPA beads (1 mg/well) were added to clear bottom 96 well assay plates. GDP ([…]) was added to the membrane solution prior to addition to the assay plates. Plates were sealed and incubated for four hours at room temperature then placed in a refrigerator overnight to allow the beads to settle. Signal stability at 4° C. was determined to be >60 hours. Plates were warmed to room temperature and counted in a Wallac Microbeta scintillation counter. For antagonist assays, specific agonists were added at the following concentrations: (MOR) DAMGO 1 micromolar, (DOR) DPDPE 30 nM, (KOR) U69593 300 nM. Kb's were determined by Cheng-Prusoff equation (see Cheng and Prusoff, Biochem. Pharmacol. 22, 3099, 1973).

[2] = target: delta opioid receptor (DOR) (Homo sapiens, UniProt P41143); test: SPA-based GTP-γ-S binding assay, antagonist mode, delta opioid receptor; conditions: antagonist assay against agonist DPDPE 30 nM; membranes; Kb by Cheng-Prusoff equation
Description: as §1

[3] = target: kappa opioid receptor (KOR) (Homo sapiens, UniProt P41145); test: SPA-based GTP-γ-S binding assay, antagonist mode, kappa opioid receptor; conditions: antagonist assay against agonist U69593 300 nM; membranes; Kb by Cheng-Prusoff equation
Description: as §1

kappa opioid receptor (KOR), sequence (P41145 whole entry): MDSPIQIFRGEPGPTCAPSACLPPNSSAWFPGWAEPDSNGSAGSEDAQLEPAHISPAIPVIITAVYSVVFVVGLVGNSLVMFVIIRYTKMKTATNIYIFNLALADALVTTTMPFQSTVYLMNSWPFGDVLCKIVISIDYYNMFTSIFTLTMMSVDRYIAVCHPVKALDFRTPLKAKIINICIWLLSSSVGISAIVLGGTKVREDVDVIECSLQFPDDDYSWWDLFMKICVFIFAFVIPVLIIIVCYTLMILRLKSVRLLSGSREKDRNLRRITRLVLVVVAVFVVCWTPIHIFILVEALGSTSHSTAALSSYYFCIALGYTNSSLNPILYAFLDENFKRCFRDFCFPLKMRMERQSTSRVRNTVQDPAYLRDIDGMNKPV
mu opioid receptor (MOR), sequence (P35372 whole entry): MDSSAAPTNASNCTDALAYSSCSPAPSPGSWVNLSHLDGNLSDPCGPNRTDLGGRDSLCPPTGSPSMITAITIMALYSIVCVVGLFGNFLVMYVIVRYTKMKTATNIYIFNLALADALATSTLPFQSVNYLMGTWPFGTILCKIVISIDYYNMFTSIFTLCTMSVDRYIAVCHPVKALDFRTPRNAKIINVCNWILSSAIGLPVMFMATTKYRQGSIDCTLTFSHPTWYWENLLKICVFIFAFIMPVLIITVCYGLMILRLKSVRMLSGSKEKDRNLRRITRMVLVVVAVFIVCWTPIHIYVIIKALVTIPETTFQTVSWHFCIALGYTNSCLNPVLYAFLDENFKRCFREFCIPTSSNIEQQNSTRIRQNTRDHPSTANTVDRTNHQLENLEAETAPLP
delta opioid receptor (DOR), sequence (P41143 whole entry): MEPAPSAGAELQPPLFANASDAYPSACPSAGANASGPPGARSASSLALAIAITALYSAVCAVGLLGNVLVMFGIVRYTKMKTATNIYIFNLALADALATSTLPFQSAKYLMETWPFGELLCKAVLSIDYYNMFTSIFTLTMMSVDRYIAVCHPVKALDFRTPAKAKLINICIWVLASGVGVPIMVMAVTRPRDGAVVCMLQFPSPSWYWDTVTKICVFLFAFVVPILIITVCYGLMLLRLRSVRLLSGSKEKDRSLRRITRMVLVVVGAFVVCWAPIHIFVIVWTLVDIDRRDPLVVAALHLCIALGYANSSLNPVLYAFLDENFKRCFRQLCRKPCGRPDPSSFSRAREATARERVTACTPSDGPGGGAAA

| SMILES | Kb [1] [nM] | Kb [2] [nM] | Kb [3] [nM] |
| --- | --- | --- | --- |
| NC(=O)c1ccc(Oc2ccc3c(c2)CCC3NCCc2ccc(F)cc2)nc1 (stereo not drawn) [Example 90, 6-{1-[2-(4-Fluoro-phenyl)-ethylamino]-indan-5-yloxy}-nicotinamide] | 0.4 | 14.6 | 9.2 |
| CC(C)CCNCC1CCCc2c(Oc3ccc(C(N)=O)cn3)cccc21 (stereo not drawn) [Example 192, 6-{5-[(3-Methyl-butylamino)-methyl]-5,6,7,8-tetrahydro-naphthalen-1-yloxy}-nicotinamide] | 1.1 | 9.4 | 11.8 |

Next, values leading:

| Kb [1] [nM] | Kb [2] [nM] | Kb [3] [nM] | SMILES |
| --- | --- | --- | --- |
| 0.73 | 13.5 | 2.5 | CC(C)CCN(C)C1CCc2cc(Oc3ccc(C(N)=O)cn3)ccc21 (stereo not drawn) [Example 20] |
| 0.5 | 7.9 | 76 | NC(=O)c1ccc(Oc2cccc3c2CCCC3CNCCC2CCCCC2)nc1 (stereo not drawn) [Example 195, 6-{5-[(2-Cyclohexyl-ethylamino)-methyl]-5,6,7,8-tetrahydro-naphthalen-1-yloxy}-nicotinamide] |
| 0.65 | 4.09 | 5.79 | CC(C)(C)CCNCC1CCCc2c(Oc3ccc(C(N)=O)cn3)cccc21 (stereo not drawn) [Example 202, 6-{5-[(3,3-Dimethyl-butylamino)-methyl]-5,6,7,8-tetrahydro-naphthalen-1-yloxy}-nicotinamide] |

From US8101638B2, “6-substituted nicotinamide derivatives as opioid receptor antagonists” (Eli Lilly and Company, priority 2003, dated 2012)
